In brackets after ≈: the same amount, converted by molar mass.
Key:
[1] = Drug excretion in […] at 0.449 mg/kg, IT administered as single dose measured after 24 hrs; format: ADME, organism-based, CWR22R; conditions: in vivo, other
[2] = Clearance in Soviet Chinchilla rabbit by HPLC analysis; format: ADME, Oryctolagus cuniculus; conditions: in vivo
[3] = Chronic toxicity in Soviet Chinchilla rabbit assessed as signs of intoxication at 120 to 243 mg/kg, iv administered once every 3 weeks; format: organism-based, Oryctolagus cuniculus; conditions: in vivo, 504 h, dose 120-243 mg/kg
LNCaP = assay: Cytotoxicity against human LNCaP cells assessed as reduction in cell viability incubated for 5 days by MTT assay; format: functional; conditions: 120 h, time 5 day
[4] = Half life in Soviet Chinchilla rabbit by HPLC analysis; format: ADME, Oryctolagus cuniculus; conditions: in vivo
PC-3 = assay: Cytotoxicity against human PC-3 cells assessed as reduction in cell viability incubated for 5 days by MTT assay; format: functional; conditions: PC-3, 120 h, time 5 day
[5] = C0 in Soviet Chinchilla rabbit by HPLC analysis; format: ADME, Oryctolagus cuniculus; conditions: in vivo
[6] = C0 in Wistar Albino rat by HPLC analysis; format: ADME; conditions: in vivo
[7] = Chronic toxicity in Soviet Chinchilla rabbit assessed as change in kidney histology at 120 to 243 mg/kg, iv administered once every 3 weeks; format: organism-based, Oryctolagus cuniculus; conditions: in vivo, 504 h, dose 120-243 mg/kg
[8] = Drug distribution in small intestine of Wistar Albino rat measured after 2 to 4 hrs; format: ADME, tissue-based; conditions: in vivo, time 2-4 hrs
[9] = Volume of distribution in Soviet Chinchilla rabbit by HPLC analysis; format: ADME, Oryctolagus cuniculus; conditions: in vivo
[10] = biological target: Glutamate carboxypeptidase 2 (Homo sapiens, UniProt Q04609); assay: Inhibition of PSMA derived from human LNCaP cell lysate assessed as inhibition of NAAG hydrolysis incubated for 2 hrs in presence of NAAG by Amplex Red assay; format: subcellular
[11] = Chronic toxicity in Soviet Chinchilla rabbit assessed as change in blood albumin content at 120 to 243 mg/kg, iv administered once every 3 weeks; format: organism-based, Oryctolagus cuniculus; conditions: in vivo, 504 h, dose 120-243 mg/kg
[12] = Chronic toxicity in Soviet Chinchilla rabbit assessed as change in brain histology at 120 to 243 mg/kg, iv administered once every 3 weeks; format: organism-based, Oryctolagus cuniculus; conditions: in vivo, 504 h, dose 120-243 mg/kg
[13] = Acute toxicity in 10 to 12 hrs fasted Wistar rat assessed as increase in kidney damage at 45 mg/kg, iv measured after 14 days; format: organism-based; conditions: in vivo, 336 h, time 14 day
[14] = Acute toxicity in 10 to 12 hrs fasted Wistar rat assessed as maximum tolerated dose administered intravenously measured after 14 days; conditions: in vivo, route iv, time 14 day
[15] = Acute toxicity in 2 hrs fasted ICR mouse assessed as reversible decrease in body weight dynamics at 89.7 mg/kg, iv measured after 14 days; format: organism-based; conditions: in vivo, 336 h, time 14 day
[16] = Acute toxicity in 2 hrs fasted ICR mouse assessed as maximum tolerated dose administered intravenously measured after 14 days; conditions: in vivo, route iv
[17] = Drug distribution in liver of Wistar Albino rat measured after 2 to 4 hrs; format: ADME, tissue-based; conditions: in vivo, time 2-4 hrs
[18] = MRT (0 to t) in Soviet Chinchilla rabbit by HPLC analysis; format: ADME, Oryctolagus cuniculus; conditions: in vivo
[19] = Half life in Wistar Albino rat by HPLC analysis; format: ADME; conditions: in vivo
[20] = Chronic toxicity in Soviet Chinchilla rabbit assessed as change in heart histology at 120 to 243 mg/kg, iv administered once every 3 weeks; format: organism-based, Oryctolagus cuniculus; conditions: in vivo, 504 h, dose 120-243 mg/kg
[21] = AUC (0 to infinity) in Wistar Albino rat by HPLC analysis; format: ADME; parameters: time infinity; conditions: in vivo
[22] = Acute toxicity in 2 hrs fasted ICR mouse assessed as restoration of mass gain rate at 89.7 mg/kg, iv measured on day 14; format: organism-based; conditions: in vivo, 336 h, time 14 day
[23] = AUC (0 to t) in Wistar Albino rat by HPLC analysis; format: ADME; conditions: in vivo
[24] = Drug distribution in kidney of Wistar Albino rat measured after 2 to 4 hrs; format: ADME, tissue-based; conditions: in vivo, time 2-4 hrs
[25] = Chronic toxicity in Soviet Chinchilla rabbit assessed as change in liver histology at 120 to 243 mg/kg, iv administered once every 3 weeks; format: organism-based, Oryctolagus cuniculus; conditions: in vivo, 504 h, dose 120-243 mg/kg
[26] = Acute toxicity in 10 to 12 hrs fasted Wistar rat assessed as change in body weight dynamics at 0.72 to 45 mg/kg, iv measured after 14 days; format: organism-based; conditions: in vivo, 336 h, dose 0.72-45 mg/kg, time 14 day
[27] = Elimination rate constant in Soviet Chinchilla rabbit by HPLC analysis; format: ADME, Oryctolagus cuniculus
[28] = Acute toxicity in 10 to 12 hrs fasted Wistar rat assessed as toxic effect at 0.72 to 45 mg/kg, iv measured after 14 days; format: organism-based; conditions: in vivo, 336 h, dose 0.72-45 mg/kg, time 14 day
[29] = Volume of distribution in Wistar Albino rat by HPLC analysis; format: ADME; conditions: in vivo
[30] = Acute toxicity in 2 hrs fasted ICR mouse assessed as toxic effect at 1.1 mg/kg, iv measured after 14 days; format: organism-based; conditions: in vivo, 336 h, time 14 day
[31] = Drug uptake in human PC-3 cells xenografted in Balb/c nude mouse assessed as amount of fluorescence intensity at 0.449 mg/kg, IT administered as single dose measured after 24 hrs by IVIS Spectrum CT analysis; format: ADME, organism-based; conditions: in vivo, other
[32] = Chronic toxicity in Soviet Chinchilla rabbit assessed as change in spleen histology at 120 to 243 mg/kg, iv administered once every 3 weeks; format: organism-based, Oryctolagus cuniculus; conditions: in vivo, 504 h, dose 120-243 mg/kg
[33] = Drug excretion in urine of Wistar Albino rat measured after 2 to 4 hrs; format: ADME; conditions: in vivo, time 2-4 hrs
[34] = Water solubility of the compound; format: physicochemical
[35] = AUC (0 to infinity) in Soviet Chinchilla rabbit by HPLC analysis; format: ADME, Oryctolagus cuniculus; parameters: time infinity; conditions: in vivo
[36] = Acute toxicity in 2 hrs fasted ICR mouse assessed as body weight reduction at 89.7 mg/kg, iv measured for 5 to 10 days; format: organism-based; conditions: in vivo
[37] = AUC (0 to t) in Soviet Chinchilla rabbit by HPLC analysis; format: ADME, Oryctolagus cuniculus; conditions: in vivo
[38] = Elimination rate constant in Wistar Albino rat by HPLC analysis; format: ADME
[39] = Chronic toxicity in Soviet Chinchilla rabbit assessed as change in lung histology at 120 to 243 mg/kg, iv administered once every 3 weeks; format: organism-based, Oryctolagus cuniculus; conditions: in vivo, 504 h, dose 120-243 mg/kg
[40] = MRT (0 to t) in Wistar Albino rat by HPLC analysis; format: ADME; conditions: in vivo
[41] = Clearance in Wistar Albino rat by HPLC analysis; format: ADME; conditions: in vivo
[42] = n-Octanol/aqueous buffer distribution coefficient, log D of compound at pH 6.4 by shake flask method; format: physicochemical
[43] = Drug distribution in blood plasma of Wistar Albino rat measured after 2 to 4 hrs; format: ADME, cell-free; conditions: time 2-4 hrs
[44] = Drug uptake in human 22Rv1 cells xenografted in Balb/c nude mouse assessed as amount of fluorescence intensity at 0.449 mg/kg, IT administered as single dose measured after 24 hrs by IVIS Spectrum CT analysis; format: ADME, organism-based, CWR22R; conditions: in vivo, other
[45] = Drug uptake in bloodstream of Balb/c nude mouse xenografted with human 22Rv1 cells at 0.449 mg/kg, IT administered as single dose measured upto 8 hrs; format: ADME, organism-based, Blood, CWR22R; conditions: in vivo, other

Chain of Glutamate carboxypeptidase 2 (Q04609 whole entry): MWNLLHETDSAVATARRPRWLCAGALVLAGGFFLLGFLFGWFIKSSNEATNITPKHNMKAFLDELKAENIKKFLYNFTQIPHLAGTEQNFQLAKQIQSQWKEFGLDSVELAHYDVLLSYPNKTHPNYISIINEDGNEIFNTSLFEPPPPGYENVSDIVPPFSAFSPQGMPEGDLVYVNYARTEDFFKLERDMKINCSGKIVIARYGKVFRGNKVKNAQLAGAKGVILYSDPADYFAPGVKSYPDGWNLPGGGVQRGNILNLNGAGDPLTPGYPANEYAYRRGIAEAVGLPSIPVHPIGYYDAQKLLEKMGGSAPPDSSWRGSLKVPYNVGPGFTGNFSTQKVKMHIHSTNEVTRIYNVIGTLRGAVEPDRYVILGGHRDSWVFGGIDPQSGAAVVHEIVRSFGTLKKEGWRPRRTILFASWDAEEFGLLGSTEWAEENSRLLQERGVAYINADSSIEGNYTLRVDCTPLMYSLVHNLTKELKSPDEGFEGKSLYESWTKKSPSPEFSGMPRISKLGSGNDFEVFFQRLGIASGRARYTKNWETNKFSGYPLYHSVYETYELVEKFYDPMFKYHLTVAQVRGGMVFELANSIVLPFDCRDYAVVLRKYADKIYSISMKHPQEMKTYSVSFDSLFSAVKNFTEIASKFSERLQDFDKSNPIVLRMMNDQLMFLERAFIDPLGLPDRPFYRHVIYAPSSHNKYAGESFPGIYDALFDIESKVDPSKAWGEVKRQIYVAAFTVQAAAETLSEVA

SMILES: CN1/C(=C/C=C2C=C(/C=C/C3=[N+](CCCCCC(=O)NCc4cn(CCCNC(=O)[C@H](Cc5ccc(O)cc5)NC(=O)[C@H](Cc5ccccc5)NC(=O)CCC(=O)NCCCCCC(=O)N(CCCC[C@H](NC(=O)N[C@@H](CCC(=O)O)C(=O)O)C(=O)O)Cc5cccc(Cl)c5)nn4)c4ccc(S(=O)(=O)[O-])cc4C3(C)C)CCC/2)C(C)(C)c2cc(S(=O)(=O)O)ccc21
- Drug uptake [1]: Active
- clearance [2]: 14 mL/min/kg
- Activity [3]: Non-Toxic
- CC50 (LNCaP): 12.2 µM
- half-life [4]: 1.39 h
- CC50 (PC-3): 18.7 µM
- C0 [5]: 869 µg/mL
- C0 [6]: 342 µg/mL
- Activity [7]: Non-Toxic
- Drug uptake [8]: Active
- Vd [9]: 1.49 L/kg
- Ki [10]: 0.0181 µM
- Activity [11]: Toxic
- Activity [12]: Non-Toxic
- Activity [13]: Toxic
- MTD at 336 h [14]: 45 mg/kg
- Activity [15]: Toxic
- MTD at 14 h [16]: 89.7 mg/kg
- Drug uptake [17]: Active
- MRT last [18]: 0.18 h
- half-life [19]: 1.78 h
- Activity [20]: Non-Toxic
- AUC(0-inf) [21]: 76000 ng·h/mL
- Activity [22]: Non-Toxic
- AUC(0-t) [23]: 53000 ng·h/mL
- Drug uptake [24]: Active
- Activity [25]: Non-Toxic
- Activity [26]: Non-Toxic
- k el [27]: 0.000181 s⁻¹
- Activity [28]: Non-Toxic
- Vd [29]: 0.954 L/kg
- Activity [30]: Non-Toxic
- Activity [31]: 1.9 10^9(p/s)(uW/cm^2)
- Activity [32]: Non-Toxic
- Drug excretion [33]: Active
- solubility [34]: 560 µg/mL (≈ 312 µM)
- AUC(0-inf) [35]: 82000 ng·h/mL
- Activity [36]: Toxic
- AUC(0-t) [37]: 70000 ng·h/mL
- k el [38]: 0.000179 s⁻¹
- Activity [39]: Non-Toxic
- MRT last [40]: 0.719 h
- clearance [41]: 8.22 mL/min/kg
- logD [42]: -0.48
- Drug uptake [43]: Active
- Activity [44]: 1.9 10^9(p/s)(uW/cm^2)
- Drug uptake [45]: Active

— ChEMBL document CHEMBL5096171, “Synthesis and Biological Evaluation of PSMA Ligands with Aromatic Residues and Fluorescent Conjugates Based on Them” (J Med Chem, 2021)
